In brackets after ≈: the same amount, converted by molar mass. Activity calls are given as the source filed them. The calls are words filed in the database; no cut-off is given here.
How the values were obtained:
[1] = system: Mycobacterium tuberculosis; test: Antimycobacterial activity against Mycobacterium tuberculosis H37Rv; assay type: functional
[2] = system: Mycobacterium tuberculosis; test: Antimycobacterial activity against Mycobacterium tuberculosis H37Rv in 7H12 medium by microplate alamar blue assay; assay type: functional
[3] = system: Mycobacterium tuberculosis; test: Antimycobacterial activity against Mycobacterium tuberculosis H37Rv in GAS medium by microplate alamar blue assay; assay type: functional
[4] = system: Mycobacterium tuberculosis; test: Antimycobacterial activity against non-replicating Mycobacterium tuberculosis H37Rv by low oxygen recovery assay; assay type: functional, organism-based
Vero = test: Cytotoxicity against African green monkey Vero cells; assay type: cell-based; conditions: chlorocebus sabaeus

| SMILES | MIC [1] [ng/mL] | MIC [2] [µM] | MIC [3] [µM] | Activity [4] | Activity (Vero) |
| --- | --- | --- | --- | --- | --- |
| C[C@H]1COC2(CCN(c3nc(=O)c4cc(C(F)(F)F)cc([N+](=O)[O-])c4s3)CC2)O1 [BTZ-043] | 1 (≈ 2.32 nM) | < 0.02 | < 0.02 |  |  |
| C[C@H]1COC2(CCC(C(=O)Nc3cc([N+](=O)[O-])cc([N+](=O)[O-])c3)CC2)O1 (stereo partly drawn) |  | 47.9 (≈ 17.5 µg/mL) | 22.6 (≈ 8.26 µg/mL) |  |  |
| C[C@H]1COC2(CCC(C(=O)Nc3cccc(C(F)(F)F)c3)CC2)O1 (stereo partly drawn) |  | > 50 | 17.9 (≈ 6.15 µg/mL) |  |  |
| C[C@H]1COC2(CCC(C(=O)Nc3cc([N+](=O)[O-])cc(C(F)(F)F)c3)CC2)O1 (stereo partly drawn) |  | 23 (≈ 8.93 µg/mL) | 18.4 (≈ 7.15 µg/mL) |  |  |
| C[C@H]1COC2(CCN(S(=O)(=O)c3cc([N+](=O)[O-])cc(C(F)(F)F)c3)CC2)O1 |  | 6.99 (≈ 2.87 µg/mL) | 10.2 (≈ 4.19 µg/mL) | Active | Toxic |
| C[C@H]1COC2(CCN(S(=O)(=O)c3cc(Br)cc(C(F)(F)F)c3)CC2)O1 |  | > 10 |  |  |  |
| C[C@H]1COC2(CCN(S(=O)(=O)c3cc([N+](=O)[O-])cc([N+](=O)[O-])c3)CC2)O1 |  | 1.53 (≈ 0.593 µg/mL) | 2.05 (≈ 0.794 µg/mL) | Active | Non-toxic |
| O=C(OCc1ccccc1)c1cc([N+](=O)[O-])cc([N+](=O)[O-])c1 |  | 13 (≈ 3.94 µg/mL) | 0.27 (≈ 0.0816 µg/mL) |  |  |
| C[C@H]1COC2(CCN(S(=O)(=O)c3cc(-c4ccccn4)cc(C(F)(F)F)c3)CC2)O1 |  | > 50 | 49.3 (≈ 21.8 µg/mL) |  |  |
| C[C@H]1COC2(CCN(S(=O)(=O)c3cc(-c4ccccc4)cc(C(F)(F)F)c3)CC2)O1 |  | > 64 | 17.4 (≈ 7.68 µg/mL) |  |  |
| O=C(OCc1ccccc1)c1cc([N+](=O)[O-])cc(C(F)(F)F)c1 |  | > 50 | 2.03 (≈ 0.66 µg/mL) |  |  |
| C[C@H]1COC2(CCN(S(=O)(=O)c3cc(-c4cccc[n+]4[O-])cc(C(F)(F)F)c3)CC2)O1 |  | > 64 | > 64 |  |  |
